One data set concerns Plasmodium berghei ANKA. Briefly: Peters' four-day suppressive test in BALB/c mice. Type of data set: in vivo. Particulars: ip; for Mean ED50 ± SE: once daily days 0 to 3, BALB/c mice, n = 5. The source says:
Evaluation of the curative potential of the fluoroquinolone derivatives was done using the method described by Ryley and Peters, 1970 (rodent malaria four-day suppressive test; Peters’ four-day suppressive test). Rodent malaria parasite Plasmodium berghei ANKA was used.
[…] BALB/c inbred albino mice (25–30 g) of the male sex were obtained from the Animal Facility Centre of the Department of Zoology, University of Delhi. The animals were fed ad libitum with standard feed and had free access to water. They were maintained under standard conditions of humidity, temperature (25°C) and 12 hours light/darkness cycles. The animals were acclimatized for two weeks before the commencement of the study and were ensured to exclude all zoonotic agents.
Day 0: Heparinized blood was withdrawn from an infected donor mouse with approximately 25-30% parasitemia, and diluted in 1x PBS to 10^8 parasitized erythrocytes per mL. An aliquot of 0.2 mL (=2 × 10^7 parasitized erythrocytes) of this suspension was injected intraperitoneally (ip) into experimental groups of five mice each. One to three hours post-infection, the experimental groups were treated with varying doses of each of the test compounds (0.5, 1, 10, 25 mg/kg BW) by the ip route. Each compound was made to strength of 5 mg/ml stock solution in 10% DMSO and administered according to desired concentration and individual body weight. Artemisinin was given to the standard drug group and 0.2 mL of normal saline to the negative control group.
Day 1, 2 and 3: 24 hours, 48 hours and 72 hours post-infection, the experimental groups of mice were treated again with the same dose and by the same route as on day 0.
Day 4: 24 hours after the last treatment (i.e., 96 hours post-infection), blood was drawn from the tail region of mice and smears were prepared. […] Differences in parasitemia percentage between treated groups and untreated animals were analysed by a one-way ANOVA test using IBM SPSS Statistics 16.0 and differences considered significant if P < 0.05. […] Percentinhibitionactivity=100–Meanparasitemia/control×100
Untreated control mice typically died approximately one week after infection. […] The mean survival time was calculated in comparison to untreated (Normal saline) and standard drug (artemisinin) treated groups. Differences in survival time between treated groups and untreated animals were analysed by Log-rank (Mantel-Cox) test using GraphPad Prism 5 and differences considered significant if P <0.005. Observations concerning adverse effects due to the compounds were recorded.

Data set [1] relates to Plasmodium falciparum 3D7 strain. Put plainly: antiplasmodial interaction assay, fixed-ratio combination isobologram method with artemisinin. Particulars: n = 3. Type of data set: cell-based. As to the method: Stock culture of malaria parasite P. falciparum 3D7 strain (chloroquine sensitive) was continuously maintained in vitro using a CO2 incubator under low-oxygen concentration (3%) and high carbon dioxide atmosphere (4%) along with nitrogen (93%), incubated at a temperature of 37°C. The parasites were maintained on O^+ human red blood cells suspended in a complete culture medium. Each litre of RPMI-1640 aqueous culture medium was prepared with 10.4 g of powdered RPMI-1640 (with glutamine but without sodium bicarbonate), 5.94 g of HEPES buffer, 1 g of dextrose and 40 mg of gentamicin. Complete medium was constituted just before use by adding sterile 5% sodium bicarbonate at the rate of 4 ml per 96 ml, and supplemented with 10% (v/v) pooled O^+ human serum. Infected erythrocytes were suspended in this culture media initiated at a haematocrit value of 5% and parasitemia was kept between 2 and 4% with sub-culturing done beyond 5%. Medium was changed once a day and percentage parasitemia was monitored using Giemsa stained slides.
Artemisinin (Sigma Aldrich, USA) was prepared in DMSO to get the stock solution of 1 mg/ml strength. Compounds 10, 12 and 18 were synthesized according to the procedure described by Dixit et al. and each compound was made to strength of 1 mg/ml stock solution in DMSO. The stock solutions were diluted on the day of experiment to get the desired concentrations for each compound. The highest amount of DMSO in diluted concentrations was 0.125%, and had no effect on parasite growth.
In each combination assay, two compounds (Compound A, artemisinin and Compound B, a fluoroquinolone derivative or norfloxacin) were combined in four fixed ratios (4:1, 3:2, 2:3, and 1:4).
Compound dilutions of each combination solution were made in sterile, flat-bottomed, 96-well tissue culture plates as described by Fivelman et al.. Six times two-fold serial dilution was done for each combination in triplicate. Each well contained a total volume of 200 μl of complete culture medium with or without compound and pre-synchronized infected red blood cells (1% parasitemia at 2.5% haematocrit). Control cultures (without compound) were maintained on the same plate in triplicate. Two 96-well plates (for six combinations) were used for each combination experiment. The plates were stacked in a CO2 incubator and incubated at 37°C for 48 hours.
After 48-hour incubation, thin blood smear slides were prepared, air dried, methanol fixed, and stained in Giemsa solution for 40 min. After staining, slides were removed from coupling jar, washed in running tap water and air dried. The Giemsa-stained slides were examined for counting the number of parasites in random adjacent microscopic fields, equivalent to about 4,000 erythrocytes at 1,000 × magnification. Per cent parasitemia was calculated. Reproducibility of counts was checked by two other readers to maintain the quality control.
For each combination assay, IC50 was calculated from two sets of concentration response graphs, each containing compound alone curve and four combination curves.
ƩFIC <1 represents synergism, ƩFIC > = 1 and <2 represents additive interaction, ƩFIC > = 2 and <4 represents slight antagonism while ƩFIC > = 4 represents marked antagonism.

For data set [2] the following is noted: cited from earlier work.

The values below come from article PMC4349624, “In vitro synergistic effect of fluoroquinolone analogues in combination with artemisinin against Plasmodium falciparum; their antiplasmodial action in rodent malaria model” (Malaria Journal, 2015).

Structures are written as SMILES.

Regarding `C[C@@H]1CC[C@H]2[C@@H](C)C(=O)O[C@@H]3O[C@@]4(C)CC[C@@H]1[C@]32OO4` [Artemisinin], the “Mean ED50 ± SE” value with Plasmodium berghei ANKA is on record as 1.72 ± 0.15 mg/kg BW; with Plasmodium berghei ANKA (listed as artemisinin) it was 1.72 mg/kg BW. Further, the “survival of treated mice” value in the data set on Plasmodium berghei ANKA (varying doses 0.5-25 mg/kg BW, observed 30 days) is given as “survived beyond two weeks”. For the same compound, the “Drug A (Artemisinin) Mean FIC50 ± SE” value in data set [1] (ratio A:B 1:4, combined with compound 10) is listed as 0.17 ± 0.03; in data set [1] (ratio A:B 1:4, combined with compound 12), 0.25 ± 0.004; in data set [1] (ratio A:B 1:4, combined with compound 18), 0.22 ± 0.01; in data set [1] (ratio A:B 1:4, combined with norfloxacin) it was 0.14 ± 0.01; in data set [1] (ratio A:B 2:3, combined with compound 10), 0.48 ± 0.02; in data set [1] (ratio A:B 2:3, combined with compound 12), 0.50 ± 0.02. Further, the “Drug A (Artemisinin) Mean FIC50 ± SE” value in data set [1] (ratio A:B 2:3, combined with compound 18) is 0.49 ± 0.04; in data set [1] (ratio A:B 2:3, combined with norfloxacin) it was 0.66 ± 0.02; in data set [1] (ratio A:B 3:2, combined with compound 10), 0.58 ± 0.03; in data set [1] (ratio A:B 3:2, combined with compound 12), 0.60 ± 0.03; in data set [1] (ratio A:B 3:2, combined with compound 18) it was 0.55 ± 0.03; in data set [1] (ratio A:B 3:2, combined with norfloxacin), 0.29 ± 0.02. Besides, the “Drug A (Artemisinin) Mean FIC50 ± SE” value in data set [1] (ratio A:B 4:1, combined with compound 10) came to 0.61 ± 0.01; in data set [1] (ratio A:B 4:1, combined with compound 12), 0.63 ± 0.03; in data set [1] (ratio A:B 4:1, combined with compound 18), 0.58 ± 0.02; in data set [1] (ratio A:B 4:1, combined with norfloxacin), 0.91 ± 0.03; in data set [1] (ratio A:B 5:0, assay with compound 10) it was 1.02 ± 0.04; in data set [1] (ratio A:B 5:0, assay with compound 12) it was 1.0 ± 0.02. In addition, the “Drug A (Artemisinin) Mean FIC50 ± SE” value in data set [1] (ratio A:B 5:0, assay with compound 18) is 0.97 ± 0.07; in data set [1] (ratio A:B 5:0, assay with norfloxacin), 1.13 ± 0.06. In addition, the half life result in data set [2] is “< one”.
